13 compounds from ChEMBL document CHEMBL5096182, “Aurora kinase inhibitors as potential anticancer agents: Recent advances” (Eur J Med Chem, 2021) can be followed below.

As usually defined, the IC50 is the concentration that inhibits the measured activity by half. The term bioavailability denotes dose-corrected exposure relative to a reference, in per cent. Read a high bioavailability as much systemic uptake. A word on the inhibition: it is the relative decrease from the control value, in per cent. A word on the GI50: it is the concentration giving 50% growth inhibition.

Values after ≈ are worked out from the molar mass of the structure shown.

Data set [1] relates to A549. The experiment in a line: Antiproliferative activity against human A549 cells incubated for 72 hrs by alamar blue cell viability assay. Particulars: A549, 72 h. In kind it is functional, cell-based. A general note: Resazurin is reduced to fluorescent resorufin, in cell work by metabolically active cells.
A short description of data set [2]: Inhibition of Aurora B (unknown origin) using Ulight-PLK (Ser137) as substrate incubated for 60 mins by FRET-based Lance Ultra Kinase assay. The arrangement: species or system Homo sapiens.
The test system of a further data set is MDA-MB-231. The experiment in a line: Antiproliferative activity against human MDA-MB-231 cells incubated for 72 hrs by alamar blue cell viability assay. Format: functional, cell-based. As to conditions: MDA-MB-231, 72 h.
In a further data set the test system is A-375. The experiment in a line: Antiproliferative activity against human A-375 cells incubated for 72 hrs by alamar blue cell viability assay. In kind it is functional, cell-based. Particulars: A-375, 72 h.
The next data set relates to MCF7. The experiment in a line: Antiproliferative activity against human MCF7 cells incubated for 72 hrs by alamar blue cell viability assay. Format: functional, cell-based. As to conditions: MCF7, 72 h.
Data set [3] is described as follows: Oral bioavailability in mouse at 10 mg/kg. In kind it is ADME, organism-based. As to conditions: in vivo.
The next data set deals with SK-OV-3. In words: Antiproliferative activity against human SK-OV-3 cells incubated for 72 hrs by alamar blue cell viability assay. In kind it is functional, cell-based. As to conditions: SK-OV-3, 72 h.
In data set [4] the target is T1, Aurora kinase A (Homo sapiens) (UniProt O14965).
T1 sequence (whole entry): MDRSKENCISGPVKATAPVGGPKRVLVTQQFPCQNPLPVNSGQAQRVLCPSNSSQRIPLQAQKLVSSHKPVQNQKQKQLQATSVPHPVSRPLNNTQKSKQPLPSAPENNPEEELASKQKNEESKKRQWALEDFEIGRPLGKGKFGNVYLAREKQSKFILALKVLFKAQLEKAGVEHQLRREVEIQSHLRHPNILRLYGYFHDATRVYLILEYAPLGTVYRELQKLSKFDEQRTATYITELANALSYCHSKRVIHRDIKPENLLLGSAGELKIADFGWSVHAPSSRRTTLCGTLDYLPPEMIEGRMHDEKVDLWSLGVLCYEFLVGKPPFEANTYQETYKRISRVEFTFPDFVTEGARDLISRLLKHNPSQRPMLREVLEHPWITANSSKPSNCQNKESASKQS
In words: Inhibition of Aurora kinase A (unknown origin) using LeuArgArgAlaSerLeuGly as substrate at 10 uM incubated in presence of ATP relative to control.

The test system of data set [5] is HCT-116. The experiment in a line: Anticancer activity against human HCT-116 cells assessed as cell growth inhibition measured after 7 days by crystal violet staining based clonogenic long-term survival assay. In kind it is functional. As to conditions: HCT-116, 168 h, time 7 day.
Data set [6] concerns HepG2. In words: Antiproliferative activity against human HepG2 cells. In kind it is functional, cell-based.
Data set [7] relates to HCT-116. In words: Antiproliferative activity against human HCT-116 cells by MTT assay. On the technique in general: Formazan colour is commonly taken as a measure of viable cells.
In data set [8] the target is T2, Aurora kinase A (Homo sapiens, UniProt O14965).
T2 sequence (O14965 whole entry): T1 sequence (whole entry)
The experiment in a line: Inhibition of N-terminal GST tagged Aurora A (unknown origin) expressed in recombinant baculovirus-infected Sf9 cells using tetra(LRRWSLG) as substrate preincubated for 15 mins followed by the addition of substrate for 90 mins in the presence of ATP by Kinase-Glo Plus reagent based luminescence assay.

Data set [9] addresses T2, Aurora kinase A. The experiment in a line: Inhibition of Aurora A (unknown origin) using recombinant Lats2-N-ter as substrate incubated in the presence of ATP.
The subject of another data set is A2780. The experiment in a line: Antiproliferative activity against human A2780 cells incubated for 48 hrs by SRB assay. Format: functional, cell-based. As to conditions: A2780, 48 h. For orientation: In SRB staining, fixed cells bind dye roughly in proportion to their protein.
Data set [10] has as its system HepG2. The experiment in a line: Antiproliferative activity against human HepG2 cells incubated for 48 hrs by SRB assay. Format: functional, cell-based. As to conditions: HepG2, 48 h.
The test system of data set [11] is HCT-116. The experiment in a line: Antiproliferative activity against human HCT-116 cells incubated for 48 hrs by SRB assay. Format: functional, cell-based. Particulars: HCT-116, 48 h.
The test system of data set [12] is A549. The experiment in a line: Antiproliferative activity against human A549 cells incubated for 72 hrs by MTT assay. Format: functional, cell-based. As to conditions: A549, 72 h.
The target in data set [13] is T2, Aurora kinase A. The experiment in a line: Inhibition of human Aurora A using LeuArgArgAlaSerLeuGly as substrate.

Consider `CN1CCN(c2nc(Nc3ccc(S(N)(=O)=O)cc3)ncc2F)Cc2ccc(F)cc21`, for which the IC50 in the data set with A549 [1] stood at 1530 nM; in [2], 8 nM; with MDA-MB-231, 420 nM; with A-375, 3970 nM; with MCF7, 570 nM; with SK-OV-3 it was 690 nM. The bioavailability in data set [3] was determined as 73%.
On to `COc1ccc(-c2cc(-c3ccccc3O)nc(N)n2)c(OC)c1`, for which the inhibition in data set [4] turned out to be 95%. The concentration for 50% growth inhibition (GI50) in the data set on HCT-116 [5] was 1450 nM.
`Cc1c(-c2cc(-c3cn(-c4ccccc4)nc3-c3nnn(-c4ccc(Br)cc4)c3C)c(C#N)c(N)n2)nnn1-c1ccc(Br)cc1` came in with an IC50 in the data set on HepG2 [6] of 0.64 µg/mL (≈ 0.873 µM).
For `CC(=O)N1CCN(c2ccc(Nc3ncc(F)c(N4CCN(C)c5cc(F)ccc5C4)n3)cc2)CC1`, the IC50 in data set [2] was determined as 9 nM.
Take `COc1cc2ncnc(NCCc3ccc(NC(=O)Nc4ccccc4)cc3)c2cc1OC`: the results for the 50% inhibitory concentration (IC50) in the data set on HCT-116 [7] and on Aurora kinase A [8] were 23 nM and 25 nM, respectively.
`C=CCn1c(C)nc2ccc(Nc3nc(N4CCN(C)CC4)nc4ccccc34)cc21`: the IC50 at Aurora kinase A [9] came out at 35 nM.
In the data set with HepG2 [6], `COc1ccc(-c2cc(-c3nnn(-c4ccc(Br)cc4)c3C)nc(N)c2C#N)cc1` showed an IC50 of 2.34 µg/mL (≈ 5.07 µM).
For `NC1=C(C(=O)Nc2ccc(-c3nc4ccccc4[nH]3)cc2)C(c2ccc([N+](=O)[O-])cc2)N2C=CSC2N1` (stereo unspecified), the half-inhibitory concentration (IC50) with A2780 turned out to be 3500 nM; with HepG2 [10], 2340 nM; with HCT-116 [11], 1320 nM.
In the data set on HepG2 [6], `COc1cccc2c1C(=O)c1c(O)c3c(c(O)c1C2=O)C[C@@](O)(C(=O)CO)C[C@@H]3O[C@H]1C[C@H](N)[C@H](O)[C@H](C)O1` [DOXORUBICIN] registered an IC50 of 3.56 µg/mL (≈ 6.55 µM).
Turning to `Cc1c(-c2cc(-c3cn(-c4ccccc4)nc3-c3nnn(-c4cccc([N+](=O)[O-])c4)c3C)c(C#N)c(N)n2)nnn1-c1ccc(Br)cc1`, in the data set with HepG2 [6], the IC50 came to 1.08 µg/mL (≈ 1.54 µM).
Consider `CN1CCN(c2ccc(Nc3ncc(F)c(N4CCN(C)c5cc(F)ccc5C4)n3)cc2)CC1`, for which 7 nM corresponded to half-maximal inhibition in [2] (IC50).
For the compound `O=C(N/N=C/c1coc2ccccc2c1=O)c1ccc(F)cc1`, the IC50 in the data set with A549 [12] and against Aurora kinase A [13] was 1140 nM each time.
For the compound `COc1ccccc1C1C(C(=O)Nc2ccc(-c3nc4ccccc4[nH]3)cc2)=C(N)NC2SC=CN21` (stereo unspecified), the IC50 with A2780 was found to be 3100 nM; in the data set on HepG2 [10], 2110 nM; with HCT-116 [11] it was 1200 nM.
